PubChem BioAssay AID1996
In brackets after ≈: the same amount, converted by molar mass.

Conditions: buffer; pH 7.4; 200.0 µM

Structure (SMILES)	solubility kinetic [µg/mL]
COc1cc2ccccc2cc1C(=O)N1CC(C)OC(C)C1 (stereo not drawn)	> 44.9
COC(=O)Cn1cc(C=C2C(=O)NC(=O)NC2=O)c2ccccc21	8.6 (≈ 26.3 µM)
CC(=O)Nc1ccc(S(=O)(=O)Nc2ccc(N3CCCCC3)cc2)cc1	51.9 (≈ 139 µM)
O=C(CCCOc1ccc(Cl)cc1Cl)Nc1ncccn1	7.7 (≈ 23.6 µM)
O=C(CSc1nc2ccc([N+](=O)[O-])cc2s1)NCC1CCCO1 (stereo not drawn)	50.6 (≈ 143 µM)
C/C=C/COC(=O)C1=C(C)NC(=O)NC1c1ccc2c(c1)OCO2 (stereo not drawn)	15.5 (≈ 46.9 µM)
Cc1ccc(S(=O)(=O)CC(=O)Nc2cccc(C)n2)cc1	11.5 (≈ 37.8 µM)
CCOC(=O)CNc1nc(Cl)nc(NC(C)(C)C)n1	> 43.2
Cc1ccccc1-n1nc2c(c1NC(=O)C(C)(C)C)CS(=O)(=O)C2	> 52.1
Cc1ccc(C(=O)c2ccccc2C(=O)OCC(=O)N2CCCC2)cc1	> 52.7
Cc1oc(C(C)(C)C)cc1C(=O)NCc1ccc2c(c1)OCO2	< 0.7
COc1ccc(C2=NCCNC(C(F)(F)F)=C2)cc1	> 40.5
O=C(COc1ccc(Cl)cc1Cl)N1CCNC1=O	31 (≈ 107 µM)
CCN(CC)S(=O)(=O)c1ccc2nc(CCl)[nH]c2c1	> 45.3
Cc1cc(S(=O)(=O)NCc2ccco2)c(C)cc1Cl	> 45
O=C(COC(=O)CNC(=O)c1ccccc1Cl)NC1CC1	37.4 (≈ 120 µM)
CCOc1ncccc1C(=O)OCC(=O)NCc1ccc(C(=O)OC)cc1	> 55.9
N/C(=N\OC(=O)c1ccc(Cl)cc1Cl)c1ccncc1	16.5 (≈ 53.2 µM)
S=C(Nc1ccc(Br)cc1)N1CCN(c2ccccn2)CC1	2.1 (≈ 5.57 µM)
CCCCc1nc(C(N)=O)c2[nH]c(=O)n(-c3ccc(OCC)cc3)c2n1	5.6 (≈ 15.8 µM)
Cc1ccccc1C(=O)Nc1ccc(S(=O)(=O)N2CCOCC2)cc1	> 54.1
Cc1ccc(S(=O)(=O)N2CCCCC2)cc1NC(=O)CSc1nnc(C2CC2)n1C	> 67.4
Cc1cccc(NC(=O)CCCN2C(=O)C3CC=CCC3C2=O)c1 (stereo not drawn)	> 49
O=C(COc1cccc(Br)c1)Nc1ccc(Cl)c(S(=O)(=O)N2CCOCC2)c1	4.1 (≈ 8.37 µM)

Structure (SMILES)	solubility kinetic [µg/mL]
COc1ccccc1Nc1nc(N)nc(CN2CCCCC2)n1	> 47.2
COc1ccc(CCNC(=O)c2cccn2C)cc1	33.3 (≈ 129 µM)
CCOC(=O)CC(=O)COc1nc2cc3c(nc2o1)CCCC3	> 47.7
O=C1CCCC2=C1C(c1ccsc1)CC(=O)N2c1ccccc1F (stereo not drawn)	> 51.2
C=CCOc1ccc2c(c1)c(=O)cc(C(=O)O)n2CC	39.7 (≈ 145 µM)
O=C1Nc2ccccc2O/C1=C\c1ccccc1	1.2 (≈ 5.06 µM)
Cc1cc(C(=O)COc2ccccc2C(N)=O)c(C)n1C1CC1	7 (≈ 22.4 µM)
CCOc1ccc2c(c1)ncn2Cc1ccccc1	32.4 (≈ 128 µM)
CCCC(=O)NC(c1ccc(C(C)C)cc1)c1ccc2cccnc2c1O (stereo not drawn)	< 0.4
CN1CCC(CNC(=O)Nc2csc3ccccc23)CC1	> 45.5
Cc1cc(=O)[nH]c(SCC(=O)Nc2ccc(F)cc2)c1C#N	> 47.6
CC1=C(C#N)C2(O)C(=O)c3ccccc3C2(O)N1 (stereo not drawn)	> 36.3
CCCc1c(C)nc(SCC(=O)C(C)(C)C)nc1OC(=O)N(C)C	46.8 (≈ 132 µM)
O=[N+]([O-])c1ccc(N2CCc3ccccc3C2)cc1	0.9 (≈ 3.54 µM)
COc1cccc(NC(=O)c2cccc(C(=O)Nc3cccc(OC)c3)c2)c1	< 0.4
Cc1ccc2[nH]cc(S(=O)(=O)c3ccc(C(C)C)cc3)c(=O)c2c1	< 0.7
Cc1ccc(-n2cnc(N)c2C(=O)c2cccc([N+](=O)[O-])c2)cc1	16.6 (≈ 51.5 µM)
C=CCSc1nc(N2CCOCC2)c2c(c1C#N)CC(C)(C)N(C)C2	49.9 (≈ 139 µM)
CC(C)C(NC(=O)c1ccccc1)C(=O)NCCc1ccccc1 (stereo not drawn)	9.4 (≈ 29 µM)
Cc1ccc(C(=O)c2coc3ccc(O)c(CN(C)C)c23)cc1.Cl	48
COc1ccc(NC(=S)NCc2ccccc2Cl)c(OC)c1	< 0.4
CCCC(=O)NC(=S)c1c(C)n(C)n(-c2ccccc2)c1=O	> 47.6
Cc1cc(C)c(C(=O)COC(=O)c2c(C)noc2C)cc1C	7.1 (≈ 23.6 µM)
Cc1ccc(NC(=O)NC(=O)c2ccccc2)cc1F	< 0.3

Structure (SMILES)	solubility kinetic [µg/mL]
C=CCN1C(=O)c2ccccc2C1(O)Cc1ccccc1 (stereo not drawn)	36.6 (≈ 131 µM)
Cc1ccccc1OCCC(=O)Nc1ccc2c(C)cc(=O)oc2c1	4.2 (≈ 12.4 µM)
CCN1CCN(C(=S)NC(=O)c2cccc(Br)c2)CC1	> 53.4
CN(CC(=O)Nc1ccc(F)cc1)C(=O)CSc1nnc(Cc2ccccc2)o1	> 62.2
CN(C)C(=O)c1ccc(-n2cnc3ccccc3c2=O)cc1	> 44
O=C(CN1C(=O)c2ccccc2C1=O)OCC(=O)N1CCCCC1	> 49.6
COc1ccccc1Nc1nc(NCCO)nc(N)c1[N+](=O)[O-]	3.4 (≈ 10.6 µM)
Cn1c(=O)c2[nH]cnc2n(C)c1=O	> 27
O=C(OCC(=O)N1CCc2ccccc21)c1ccc([N+](=O)[O-])o1	8.2 (≈ 25.9 µM)
Cc1ccc(S(=O)(=O)NCC(=O)OCC(=O)Nc2ccc(C)c(S(=O)(=O)N3CCOCC3)c2)cc1	> 78.8
O=C(Nc1nccs1)C1CC(=O)N(c2ccc(F)cc2)C1 (stereo not drawn)	9.7 (≈ 31.8 µM)
Cl.O=C(OCC1CCNCC1)c1ccc2c(c1)OCO2	> 45
CN1CCc2c(sc(/N=C/c3c[nH]c4ccccc34)c2C(N)=O)C1	10.2 (≈ 30.1 µM)
O=C(COC(=O)c1cnccn1)c1ccc(Cl)c([N+](=O)[O-])c1	> 48.3
O=C(NCCc1ccc(Cl)cc1)c1ccc(=O)[nH]c1	38.1 (≈ 138 µM)
COc1ccc(N2CCN(C(=O)COC(=O)c3cccc(OC)c3O)CC2)cc1	7.2 (≈ 18 µM)
C/C=C/C(=O)OCC(=O)Nc1ccc(OC)c(OC)c1	> 41.9
CCOc1ccc(NC(=O)Nc2ccc3c(c2)CCC3)cc1	< 0.3
O=C(O)c1ccc(NCc2nc3ccccc3n2Cc2ccccc2)cc1	> 53.6
O=C(c1cccs1)N1CCN(c2ccccc2)CC1	> 40.9
O=C(Nc1ccccc1)/C(=C\c1ccc(F)cc1)NC(=O)c1ccco1	2 (≈ 5.71 µM)
c1ccc(-c2csc(Nc3ccccn3)n2)cc1	0.3 (≈ 1.18 µM)
Cc1csc(SCC(=O)Nc2sccc2C(N)=O)n1	43.8 (≈ 140 µM)
CCN(CC)CCN(C(=O)/C=C/c1cccs1)c1nc2ccc(C)cc2s1.Cl	0.6

Structure (SMILES)	solubility kinetic [µg/mL]
Cc1ccc2[nH]cc(CCNC(=O)c3ccco3)c2c1	38.1 (≈ 142 µM)
CN=C(Nc1ccc(C(=O)OC)s1)c1ccccc1	29.6 (≈ 108 µM)
O=C(NCC(=O)N1CCOCC1)c1ccccc1	> 37.2
CC(C)CNC(=O)c1cc(-c2ccc3c(c2)OCO3)on1	0.5 (≈ 1.73 µM)
CNC(=O)COC(=O)/C=C/c1cccs1	> 33.8
O=C(CN1C(=O)NC2(CCCC2)C1=O)Nc1ccccc1N1CCCC1	46.4 (≈ 130 µM)
O=C(c1cc(-c2ccc(O)cc2)on1)N1CCCCCC1	> 42.9
CCOc1ccc(NC(=O)Nc2ccon2)cc1	36.9 (≈ 149 µM)
COc1ccc(CNC(=O)Cc2c[nH]c3ccccc23)cc1OC	48.6 (≈ 150 µM)
O=C(NCCCN1CCCC1=O)c1ccc(Cl)c(Cl)c1	45.9 (≈ 146 µM)
COc1ccc(C(=O)Cn2cc([N+](=O)[O-])nc2C)cc1	13.5 (≈ 49 µM)
O=C(O)/C=C\C(=O)Nc1ccccc1N1CCN(c2ccccc2)CC1	52 (≈ 148 µM)
COc1ccc(NS(=O)(=O)c2ccc(N3CCCCC3)c(NC(=O)C(C)NC(N)=O)c2)cc1 (stereo not drawn)	> 71.3
CN(CC(=O)Nc1sccc1C(N)=O)S(=O)(=O)c1ccc(Cl)cc1	8.7 (≈ 22.4 µM)
COc1ccc2c(c1)c(C(=O)O)c(C)n2-c1ccc(Cl)cc1	15.2 (≈ 48.1 µM)
COc1ccc(C(OC(=O)c2ccco2)C(=O)NC(C)(C)C)cc1 (stereo not drawn)	> 49.7
COc1ccccc1NC(=O)COc1cccc2c1CCNC2=O	6.9 (≈ 21.1 µM)
CC(C)(C)C(=O)N1CCN(C(c2ccccc2)c2ccccc2)CC1	28.3 (≈ 84.1 µM)
COc1cc(S(=O)(=O)NCc2ccc3c(c2)OCO3)c(OC)cc1C	53.9 (≈ 148 µM)
O=c1cc(Cl)[nH]c(=O)n1Cc1ccccc1	> 35.5
COc1ccccc1-c1nc(C#N)c(NCCCn2ccnc2)o1	> 48.5
O=C(Nc1ccccc1)c1ccc(NC(=O)C2CC2)cc1	1.2 (≈ 4.28 µM)
COc1cccc(CN(C)Cc2nc(C3CC3)no2)c1	> 41
Cc1c(C(=O)N2CCN(c3ncccn3)CC2)oc2ccc(F)cc12	9.5 (≈ 27.9 µM)

Structure (SMILES)	solubility kinetic [µg/mL]
O=C(CS(=O)(=O)Cc1ccccc1)NCc1ccccc1Cl	> 50.7
Cc1nc(C)c(N)c(=O)[nH]1.Cl	> 26.3
O=C1CCC(C(=O)OCC(=O)c2ccccc2)N1 (stereo not drawn)	> 37.1
CCn1c(SC(C)C(=O)NCC2CCCO2)nc2ccccc21 (stereo not drawn)	49.9 (≈ 150 µM)
CCc1cc2cc(C)ccc2nc1SCC(=O)NC1CCCC1	< 0.4
O=C(NCc1ccc(F)cc1)c1cccs1	29.9 (≈ 127 µM)
CCOC(=O)c1[nH]c(C)c(C(=O)/C=C/c2ccc(C(=O)O)cc2)c1C	> 51.2
O=[N+]([O-])c1ccc(CN2CC=C(c3ccccc3)CC2)cc1	6.8 (≈ 23.1 µM)
S=C(NCc1ccco1)NC1CCCc2ccccc21 (stereo not drawn)	36.4 (≈ 127 µM)
O=S(=O)(Nc1ccccn1)c1ccc(Br)cc1	37.9 (≈ 121 µM)
O=C(NC1CC1)c1sc2cc(F)ccc2c1Cl	9.4 (≈ 34.8 µM)
Cc1ccc2c(Cl)cc(Cl)c(OCC(=O)O)c2n1	> 42.9
O=C(CSc1ccccc1C(=O)O)Nc1ccc2c(c1)OCO2	> 49.7
O=C(COc1cccc(Cl)c1Cl)NC1CC1	> 39
COc1ccc(-c2cn3cccnc3n2)cc1	> 33.8
COc1ccc(-c2c(C)nc(N)nc2-c2ccc(OC)cc2O)cc1	7.4 (≈ 21.9 µM)
COc1cccc2c3c(c(=O)[nH]c12)CC(C)(C)O3	> 36.8
O=C(O)C1C2CCC(CC2)C1C(=O)N1CCN(Cc2ccc(F)cc2)CC1 (stereo not drawn)	> 56.2
FC(F)Oc1ccc(N=C2SCC3CCCCN23)cc1 (stereo not drawn)	15.3 (≈ 51.3 µM)
COc1ccc(-c2ocnc2C(=O)Nc2ccc3c(c2)CCC3)cc1	1.7 (≈ 5.08 µM)
COc1ccc(OC)c(NC(=O)N2CCCc3ccccc32)c1	1.7 (≈ 5.44 µM)
COc1ccc(C(=O)NCC2(c3ccccc3)CCCC2)c(OC)c1	3.8 (≈ 11.2 µM)
